The source of these data is patent US20250312352A1, “GLP-1R MODULATING COMPOUNDS” (Gilead Sciences, Inc., priority 2021, published 2025).

This test deals with T1, GLP-1R (Homo sapiens, UniProt P43220).
T1 construct: host or cells: CHO cells
T1 sequence (P43220 24-463): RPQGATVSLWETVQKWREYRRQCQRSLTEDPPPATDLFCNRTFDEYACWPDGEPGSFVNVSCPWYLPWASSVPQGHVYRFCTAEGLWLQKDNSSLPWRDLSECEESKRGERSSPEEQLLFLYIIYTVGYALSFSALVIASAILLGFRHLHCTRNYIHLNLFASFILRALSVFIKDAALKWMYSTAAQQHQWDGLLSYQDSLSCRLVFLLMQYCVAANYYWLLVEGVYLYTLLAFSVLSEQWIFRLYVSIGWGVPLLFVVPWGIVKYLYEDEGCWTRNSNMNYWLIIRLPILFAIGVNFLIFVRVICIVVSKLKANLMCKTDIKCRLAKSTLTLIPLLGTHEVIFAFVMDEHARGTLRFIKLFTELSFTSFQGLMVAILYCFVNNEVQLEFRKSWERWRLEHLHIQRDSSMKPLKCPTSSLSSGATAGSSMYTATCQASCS
Nature of the test: GLP-1R activation cAMP assay (Assay 1 or Assay 2). Format: cell-based. To be noted: cAMP increase in CHO cells stably expressing GLP-1R; compounds run on one of the two cAMP assays. The procedure: GLP-1R ACTIVATION—cAMP Assay 1
GLP-1R activation by compounds of the present disclosure was quantified by measuring cAMP increase in CHO cells stably expressing GLP-1R (MultiSpan product #C1267-1a). The cells were harvested and plated in growth medium (DMEM/F-12 (Corning product #10-090-CV) supplemented with 10% FBS (HyClone product #SH30071-03), penicillin/streptomycin (Corning product #30-002CI) and 10 μg/ml puromycin (Gibco product #A11138-03)) at 1,000 cells/well in a 384-well plate (Greiner product #781080). The cells were then incubated overnight at 37° C., 5% CO2. The next day, the medium was removed and the cells were washed with DPBS (Corning product #21-031-CM) before adding the assay medium (HBSS, Corning product #21-023-CV) with 20 mM Hepes (Gibco product #15630-080) and 0.1% BSA (Rockland Immunochemicals product #BSA-1000)). Following the medium change, the cells were incubated for 1 hour at 37° C., 5% CO2. The tested GLP-1 compound was added to the cells in a 10-point dose response followed by a 30-minute incubation at 37° C., 5% CO2. cAMP concentration increase was then detected using Cisbio's cAMP Gs Dynamic Kit (product #62AM4PEC) according to the manufacturer's protocol. The response was plotted against the log of the agonist concentration and fitted to a sigmoidal equation to determine the EC50.
GLP-1R ACTIVATION—cAMP Assay 2
GLP-1R activation by small molecule agonists was quantified by measuring cAMP increase in CHO cells stably expressing GLP-1R (MultiSpan product #C1267-1a). 50 nL of agonists were pre-spotted in a 10-point dose response onto 384-well plate (Corning product #CL3826) using the Labcyte Echo System.
In general terms: cAMP levels reflect the balance of adenylyl cyclase and phosphodiesterase activity.
One may read the EC50 as the concentration at which the effect is half-maximal. A high value points to a need for much substance. In the case of `CCOc1nnc(COc2nc(-c3cc(Cl)c(Cc4nc5c(F)cc(C(=O)O)cc5n4[C@@H]4COCC4(C)C)cc3C)ccc2F)s1` [Example 421, (S)-2-(2-chloro-4-(6-((5-ethoxy-1,3,4-thiadiazol-2-yl)methoxy)-5-fluoropyridin-2-yl)-5-methylbenzyl)-1-(4,4-dimethyltetrahydrofuran-3-yl)-4-fluoro-1H-benzo[d]imidazole-6-carboxylic acid], the EC50 turned out to be 0.087 nM. Turning to `COCCn1c(Cc2ccc(-c3cccc(OCc4ccc(C#Cc5cnc(N6CC7CCC(C6)N7C6COC6)nc5)cc4F)n3)cc2F)nc2ccc(C(=O)O)cc21` [Example 150, 2-(2-fluoro-4-(6-((2-fluoro-4-((2-(8-(oxetan-3-yl)-3,8-diazabicyclo[3.2.1]octan-3-yl)pyrimidin-5-yl)ethynyl)benzyl)oxy)pyridin-2-yl)benzyl)-1-(2-methoxyethyl)-1H-benzo[d]imidazole-6-carboxylic acid], the EC50 was 10 nM.

The compound `Cn1cc(-c2cnc(COc3cccc(-c4cc(F)c(Cc5nc6c(F)cc(C(=O)O)cc6n5C[C@@H]5CCO5)cc4F)n3)s2)cn1` [Example 87, (S)-2-(2,5-difluoro-4-(6-((5-(1-methyl-1H-pyrazol-4-yl)thiazol-2-yl)methoxy)pyridin-2-yl)benzyl)-4-fluoro-1-(oxetan-2-ylmethyl)-1H-benzo[d]imidazole-6-carboxylic acid] came in with an EC50 of 0.08 nM. Compound `Cc1c(C#Cc2ccc(COc3cccc(-c4cc(F)c(Cc5nc6ccc(C(=O)O)cc6n5C[C@@H]5CCO5)cc4F)n3)c(F)c2)cnn1C` [Example 364, (S)-2-(4-(6-((4-((1,5-dimethyl-1H-pyrazol-4-yl)ethynyl)-2-fluorobenzyl)oxy)pyridin-2-yl)-2,5-difluorobenzyl)-1-(oxetan-2-ylmethyl)-1H-benzo[d]imidazole-6-carboxylic acid] gave an EC50 of 0.929 nM. For `O=C(O)c1ccc2nc(Cc3cc(F)c(-c4cccc(OCc5cnc(C(=O)NC6CC6)cc5F)n4)cc3F)n(C[C@@H]3CCO3)c2c1` [Example 245, (S)-2-(4-(6-((6-(cyclopropylcarbamoyl)-4-fluoropyridin-3-yl)methoxy)pyridin-2-yl)-2,5-difluorobenzyl)-1-(oxetan-2-ylmethyl)-1H-benzo[d]imidazole-6-carboxylic acid] the value was 0.1 nM; for `NC(=O)c1cc(F)c(COc2cccc(-c3cc(F)c(Cc4nc5ccc(C(=O)O)cc5n4C[C@@H]4CCO4)cc3F)n2)cc1F` [Example 172, (S)-2-(4-(6-((4-carbamoyl-2,5-difluorobenzyl)oxy)pyridin-2-yl)-2,5-difluorobenzyl)-1-(oxetan-2-ylmethyl)-1H-benzo[d]imidazole-6-carboxylic acid], 2.57 nM; for `COc1nnc(COc2cccc(-c3cc(F)c(Cc4nc5c(F)cc(C(=O)O)cc5n4[C@@H]4COCC4(C)C)cc3F)n2)s1` [Example 345, (S)-2-(2,5-difluoro-4-(6-((5-methoxy-1,3,4-thiadiazol-2-yl)methoxy)pyridin-2-yl)benzyl)-1-(4,4-dimethyltetrahydrofuran-3-yl)-4-fluoro-1H-benzo[d]imidazole-6-carboxylic acid], 0.027 nM. Turning to `O=C(O)c1ccc2nc(Cc3cc(F)c(-c4cccc(OCc5ncc(-c6cnco6)s5)n4)cc3F)n(C[C@@H]3CCO3)c2c1` [Example 93, (S)-2-(2,5-difluoro-4-(6-((5-(oxazol-5-yl)thiazol-2-yl)methoxy)pyridin-2-yl)benzyl)-1-(oxetan-2-ylmethyl)-1H-benzo[d]imidazole-6-carboxylic acid], the EC50 was 0.06 nM. For `NC(=O)c1cccc(COc2cccc(-c3cc(F)c(Cc4nc5ccc(C(=O)O)cc5n4C[C@@H]4CCO4)cc3F)n2)n1` [Example 374, (S)-2-(4-(6-((6-carbamoylpyridin-2-yl)methoxy)pyridin-2-yl)-2,5-difluorobenzyl)-1-(oxetan-2-ylmethyl)-1H-benzo[d]imidazole-6-carboxylic acid] the value was 0.478 nM; for `Cc1nc(C#Cc2cnc(COc3cccc(-c4cc(F)c(Cc5nc6ccc(C(=O)O)cc6n5C[C@@H]5CCO5)cc4F)n3)c(F)c2)cs1` [Example 291, (S)-2-(2,5-difluoro-4-(6-((3-fluoro-5-((2-methylthiazol-4-yl)ethynyl)pyridin-2-yl)methoxy)pyridin-2-yl)benzyl)-1-(oxetan-2-ylmethyl)-1H-benzo[d]imidazole-6-carboxylic acid], 0.689 nM. On to `CC1(C)COC[C@H]1n1c(Cc2cc(F)c(-c3ccnc(OCc4sc(C#N)cc4F)n3)cc2F)nc2ccc(C(=O)O)cc21` [Example 267, 2-[[4-[2-[(5-cyano-3-fluoro-2-thienyl)methoxy]pyrimidin-4-yl]-2,5-difluoro-phenyl]methyl]-3-[(3S)-4,4-dimethyltetrahydrofuran-3-yl]benzimidazole-5-carboxylic acid], for which the response was half-maximal at 0.401 nM (EC50). Compound `Cn1cc(C#Cc2ccc(COc3cccc(-c4cc(F)c(Cc5nc6ccc(C(=O)O)cc6n5C[C@@H]5CCO5)cc4F)n3)s2)cn1` [Example 112, (S)-2-(2,5-difluoro-4-(6-((5-((1-methyl-1H-pyrazol-4-yl)ethynyl)thiophen-2-yl)methoxy)pyridin-2-yl)benzyl)-1-(oxetan-2-ylmethyl)-1H-benzo[d]imidazole-6-carboxylic acid] returned an EC50 of 0.13 nM. `COCCn1c(Cc2cc(F)c(-c3cccc(OCc4ccc(C#CC5COC5)cc4F)n3)cc2F)nc2ccc(C(=O)O)cc21` [Example 231, 2-[[2,5-difluoro-4-[6-[[2-fluoro-4-[2-(oxetan-3-yl)ethynyl]phenyl]methoxy]-2-pyridyl]phenyl]methyl]-3-(2-methoxyethyl)benzimidazole-5-carboxylic acid] yielded an EC50 of 1.51 nM. Consider `COCCn1c(Cc2cc(F)c(-c3cccc(OCc4ccc(-n5cnc(C6CC6)n5)nc4)n3)cc2F)nc2ccc(C(=O)O)cc21` [Example 250, 2-(4-(6-((6-(3-cyclopropyl-1H-1,2,4-triazol-1-yl)pyridin-3-yl)methoxy)pyridin-2-yl)-2,5-difluorobenzyl)-1-(2-methoxyethyl)-1H-benzo[d]imidazole-6-carboxylic acid], for which the EC50 turned out to be 22.6 nM. On to `CC1(C)COC[C@H]1n1c(Cc2cc(F)c(-c3ccnc(OCc4ccc(Cl)s4)n3)cc2F)nc2ccc(C(=O)O)cc21` [Example 418, (S)-2-(4-(2-((5-chlorothiophen-2-yl)methoxy)pyrimidin-4-yl)-2,5-difluorobenzyl)-1-(4,4-dimethyltetrahydrofuran-3-yl)-1H-benzo[d]imidazole-6-carboxylic acid], for which the EC50 worked out at 0.384 nM. `N#Cc1csc(COc2cccc(-c3cc(F)c(Cc4nc5ccc(C(=O)O)cc5n4C[C@@H]4CCO4)cc3F)n2)n1` [Example 23, (S)-2-(4-(6-((4-cyanothiazol-2-yl)methoxy)pyridin-2-yl)-2,5-difluorobenzyl)-1-(oxetan-2-ylmethyl)-1H-benzo[d]imidazole-6-carboxylic acid] displayed an EC50 of 1.43 nM. As to `O=C(O)c1ccc2nc(Cc3cc(F)c(-c4cccc(OCc5cnc(C(=O)NCC(F)(F)F)cc5Cl)n4)cc3F)n(C[C@@H]3CCO3)c2c1` [Example 191, (S)-2-(4-(6-((4-chloro-6-((2,2,2-trifluoroethyl)carbamoyl)pyridin-3-yl)methoxy)pyridin-2-yl)-2,5-difluorobenzyl)-1-(oxetan-2-ylmethyl)-1H-benzo[d]imidazole-6-carboxylic acid], a half-maximal response (EC50) required 0.69 nM.

Regarding `Cc1cc(C#Cc2cnn(C)c2)cnc1COc1cccc(-c2cc(F)c(Cc3nc4ccc(C(=O)O)cc4n3C[C@@H]3CCO3)cc2F)n1` [Example 289, (S)-2-(2,5-difluoro-4-(6-((3-methyl-5-((1-methyl-1H-pyrazol-4-yl)ethynyl)pyridin-2-yl)methoxy)pyridin-2-yl)benzyl)-1-(oxetan-2-ylmethyl)-1H-benzo[d]imidazole-6-carboxylic acid], it took 0.262 nM to reach a half-maximal effect (EC50). As to `COCCn1c(Cc2cc(F)c(-c3cccc(OCc4ccc(C#CC5CN(C(C)=O)C5)cc4F)n3)cc2F)nc2ccc(C(=O)O)cc21` [Example 251, 2-[[4-[6-[[4-[2-(1-acetylazetidin-3-yl)ethynyl]-2-fluoro-phenyl]methoxy]-2-pyridyl]-2,5-difluoro-phenyl]methyl]-3-(2-methoxyethyl)benzimidazole-5-carboxylic acid], the EC50 was found to be 0.89 nM. Take `Cn1cc(C#Cc2ccc(COc3cccc(-c4cc(F)c(Cc5nc6ccc(C(=O)O)cc6n5C[C@@H]5CCO5)cc4F)n3)c(F)c2)cn1` [Example 132, (S)-2-(2,5-difluoro-4-(6-((2-fluoro-4-((1-methyl-1H-pyrazol-4-yl)ethynyl)benzyl)oxy)pyridin-2-yl)benzyl)-1-(oxetan-2-ylmethyl)-1H-benzo[d]imidazole-6-carboxylic acid]: the EC50 is 0.17 nM.
